Literature values as cited in patent US8293243B2 (priority 2004, dated 2012).
*1 amine or outer side, *2 acyl side, *3 side chain or, on linkers, in order; H or OH if unused. Where a SMILES comes first, the peptide text is derived from it. Bridges are numbered along the chain shown (N, C = ends). Roman numbers before positions name the chains, in order. [ ]: non-standard residue; d: D form. Actinocin(9to1) = Cc1c2oc3c(C)ccc(C(=O)[*:1])c3nc-2c(C(=O)[*:2])c(N)c1=O; NMeV = CN[C@H](C(=O)O)C(C)C; Sar = CNCC(=O)O

Conditions: in vivo; cited from earlier work

Structure (SMILES): Cc1c2oc3c(C)ccc(C(=O)N[C@@H]4C(=O)N[C@H](C(C)C)C(=O)N5CCC[C@H]5C(=O)N(C)CC(=O)N(C)[C@@H](C(C)C)C(=O)O[C@@H]4C)c3nc-2c(C(=O)N[C@@H]2C(=O)N[C@H](C(C)C)C(=O)N3CCC[C@H]3C(=O)N(C)CC(=O)N(C)[C@@H](C(C)C)C(=O)O[C@@H]2C)c(N)c1=O [Actinomycin D] (I: T[dV]P[Sar][NMeV] / II: T[dV]P[Sar][NMeV]; ester I:1-I:C, II:1-II:C; linker I:N-II:N via Actinocin(9to1))
- passage of the blood-brain barrier: does not pass the blood-brain barrier
